# “And” between values parts separate entries of the source, which are not always exact repeats. Equal entries are not always repeated.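 Grown in 96-well plates, cells were treated for 48 hours with each compound at five concentrations. Insufficient inhibition: endpoint recorded as highest concentration tested. The concentration for 50% growth inhibition is given as GI50. Definition used: TGI = concentration required for complete inhibition of growth.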
# How the values were obtained:
# Test in all cases: NCI anticancer screen, dose series, 48 h
# [1] = test system: HOP-92 NSCLC
# [2] = test system: TK-10 renal
# [3] = test system: HOP-62 NSCLC
# [4] = test system: OVCAR-8 ovarian
# [5] = test system: UO-31 renal
# [6] = test system: SW-620 colon
# [7] = test system: MALME-3M melanoma
# [8] = test system: ACHN renal
# [9] = test system: K-562 leukemia
# [10] = test system: NCI/ADR-RES ovarian
SMILES,TGI [1],TGI [2],TGI [3],TGI [4],TGI [5],TGI [6],TGI [7],TGI [8],TGI [9],GI50 [1],GI50 [2],GI50 [10],TGI [10],GI50 [3],GI50 [4],GI50 [5],GI50 [6],GI50 [7],GI50 [8],GI50 [9]
O=c1nc(-c2ccccc2)cc(-c2ccccc2O)[nH]1,> 100 µM,> 100 µM,> 100 µM,> 100 µM,> 100 µM,> 100 µM,> 100 µM,> 100 µM,> 100 µM,–,–,–,–,–,–,–,–,–,–,–
Cc1cccc(C)c1NC(=O)C(=O)CC(=O)c1cccc([N+](=O)[O-])c1,> 100 µM,> 100 µM,> 100 µM,> 100 µM,> 100 µM,> 100 µM,> 100 µM,> 100 µM,> 100 µM,–,–,–,–,–,–,–,–,–,–,–
O=C(O)CN(c1ccccc1)S(=O)(=O)c1ccc([N+](=O)[O-])cc1,> 100 µM,> 100 µM,–,> 100 µM,> 100 µM,> 100 µM,> 100 µM,> 100 µM,> 100 µM,–,–,–,–,–,–,–,–,–,–,–
OCC(O)CNc1ccnc2cc(Cl)ccc12 (stereo unspecified),> 100 µM,> 100 µM,> 100 µM,> 100 µM,> 100 µM,> 100 µM,> 100 µM,> 100 µM,> 100 µM,–,–,–,–,–,–,–,–,–,–,–
CCN(CC)c1cc2oc3cc(N)cc(=N)c-3nc2cc1C,79.7 µM,23.1 µM,9.26 µM,> 100 µM,49 µM,19.5 µM,6.08 µM,> 100 µM,–,20.2 µM,4.9 µM,2.29 µM,> 100 µM,2.91 µM,2.77 µM,3.38 µM,2.75 µM,2.16 µM,1.69 µM,–
C=CCn1c2c(sc1=S)C(S)N=CN2 (stereo unspecified),55 µM,> 100 µM,> 100 µM,> 100 µM,> 100 µM,> 100 µM,> 100 µM,> 100 µM,> 100 µM,–,–,–,–,–,–,–,–,–,–,–
C=CCN1CC2CON(C(=O)C(OC)(c3ccccc3)C(F)(F)F)C2C1C(C)C (stereo unspecified),–,–,–,–,–,–,54.5 µg/mL,–,–,–,99.3 µg/mL,34.2 µg/mL,–,–,57.7 µg/mL,26.3 µg/mL,62.8 µg/mL,20 µg/mL,38.1 µg/mL,–
COC(=O)/C(=C\c1ccc(N(CCC#N)CCC#N)cc1)NC(=O)c1cc([N+](=O)[O-])ccc1Cl,–,> 100 µM,> 100 µM,> 100 µM,> 100 µM,> 100 µM,> 100 µM,> 100 µM,> 100 µM,–,–,–,–,–,–,–,–,–,–,–
CCOC(=O)/C(=C/c1cccc(C#N)c1)N(CC)CC,> 100 µM,> 100 µM,> 100 µM,> 100 µM,> 100 µM,> 100 µM,> 100 µM,> 100 µM,> 100 µM,–,–,–,–,–,–,–,–,–,–,–
N#CC(C(=O)CCC(=O)Nc1cccc(C(F)(F)F)c1)c1ccc(Cl)cc1 (stereo unspecified),> 100 µM,> 100 µM,> 100 µM,> 100 µM,> 100 µM,> 100 µM,> 100 µM,> 100 µM,> 100 µM,–,–,–,–,–,–,–,–,–,–,–
CN1CCN(c2ccc(Nc3ncc4cc(C#N)c(=O)n(C5CCCC5)c4n3)cc2)CC1,–,> 24.2 µM,> 25.5 µM,> 47.9 µM,7.03 µM,> 100 µM,> 100 µM,13.5 µM,> 100 µM,–,0.82 µM,2.94 µM,> 33 µM,2.19 µM,3.18 µM,0.218 µM,0.451 µM,1.9 µM,0.309 µM,1.25 µM
Nc1ccc2[nH]cc(CCC(=O)O)c2c1,–,> 100 µM,> 100 µM,> 100 µM,> 100 µM,> 100 µM,> 100 µM,> 100 µM,–,–,–,–,> 100 µM,–,–,–,–,–,–,–
Nc1nc(N)c2cc(CNc3ccc(C(=O)NC(CC(=O)O)C(=O)O)c(Cl)c3)ccc2n1 (stereo unspecified),–,> 500 µM,> 500 µM,> 500 µM,> 500 µM,> 500 µM,> 500 µM,> 500 µM,> 500 µM,–,> 500 µM,0.05 µM,> 500 µM,0.308 µM and 0.05 µM,0.05 µM,0.244 µM,0.05 µM,> 500 µM,0.05 µM,0.05 µM
COc1ccc2c(c1)C(C)Cc1c(ncnc1-n1cnc3cc(C)ccc31)N2C (stereo unspecified),15.9 µM,–,18.2 µM,0.938 µM,13.1 µM,16.1 µM,–,15.3 µM,15.2 µM,0.329 µM,–,0.0575 µM,59.5 µM,0.0707 µM,0.244 µM,0.106 µM,0.087 µM,–,0.0688 µM,0.0386 µM
Oc1ccc(Br)cc1C=Nc1ccc(N=Cc2cc(Br)ccc2O)cc1,> 100 µM,> 100 µM,–,> 100 µM,> 100 µM,> 100 µM,> 100 µM,> 100 µM,> 100 µM,–,–,–,–,–,–,–,–,–,–,–
CCOc1ccccc1NC(=O)C(C#N)C1=C(Cl)C(=O)c2ccccc2C1=O (stereo unspecified),3.65 µM and 3.19 µM,3.84 µM and 25.8 µM,19.7 µM,2.06 µM and 4.59 µM,3.1 µM and 2.86 µM,3.45 µM and 6.68 µM,2.91 µM and 3.08 µM,3.26 µM and 3.52 µM,–,1.4 µM,12.3 µM,–,–,–,1.92 µM,1.51 µM,2.81 µM,–,–,2.93 µM
CC1=C(C(=O)NNS(=O)(=O)c2ccc(C)cc2)CC(C(=O)NNS(=O)(=O)c2ccc(C)cc2)=C(C)N1,–,> 100 µM,> 100 µM,> 100 µM,> 100 µM,> 100 µM,> 100 µM,> 100 µM,> 100 µM,–,–,–,–,–,–,–,–,–,–,–
CN(C)CCSc1nccc(-c2cc3ccccc3s2)n1,33.5 µM,–,52.7 µM,65 µM,47.6 µM,36.7 µM,36 µM,–,–,–,–,–,–,–,–,–,–,–,–,–
O=C(O)CSc1n[nH]c(Cc2ccccc2)n1,> 100 µM,> 100 µM,> 100 µM,> 100 µM,> 100 µM,> 100 µM,> 100 µM,> 100 µM,> 100 µM,–,–,–,–,–,–,–,–,–,–,–

# Reference: PubChem BioAssay (NCI)
